Results as given in patent US20150284812A1 (priority 2012, published 2015).
Read-outs that look alike come from different tables or passages of the source.

Tests used:
[1] = system: gene expression control region of the human CYP3A4 gene (EGFP reporter)
Method: (§1) Forty-eight hours later (corresponding to Day 14 of differentiation culture), the total area fluorescence intensities of EGFP and DsRed were analyzed under a fluorescence microscope (FIG. 16).

[2] = system: gene expression control region of the human CYP3A7 gene (DsRed reporter)
Method: as §1

[3] = system: HepaRG cells
[4] = system: CYP3A7; assay: Expression of CYP3A7 upon cell damage, liver damage by a CYP-inducing drug in humanized CYP3A model mouse; type: in vivo; details: versus corn oil administration control group, hepatocyte regeneration after liver damage
From the text: The expression of CYP3A7 during the injury of hepatocytes was examined by a method of liver regeneration after partial hepatectomy performed on 70% living liver, using a humanized CYP3A model mouse into which human CYP3A4 and CYP3A7 have been incorporated, a method of damaging the liver of the same mouse as described above by administration of a CYP-inducing drug, and a method of transplanting frozen human hepatocytes into the liver injury model mouse. In the method of liver regeneration after the partial hepatectomy, mice that were fed after 70% of the liver had been excised by ligating it with a cord were produced. Thereafter, the mice were successively subjected to dissection from Days 1 to 5 to collect the liver from each mouse, and gene expression was then examined. In the method of damaging the liver by administration of a CYP-inducing drug, the liver was excised from each mouse belonging to a PCN administration group and a corn oil administration control group, and gene expression was then examined. In the method of transplanting frozen human hepatocytes into the living mouse, a part of the humanized mouse liver was obtained from PhenixBio, and gene expression was then examined.

[5] = system: CYP3A7-DsRed; assay: Liver injury test using CYP3A4+/7R MAC-introduced mice, analysis by quantitative RT-PCR; type: in vivo, mouse; details: adult mice; 5% carbon tetrachloride; Days 1, 2 and 3 versus non-administered (Day 0)
Method: Using RNAs extracted from the livers of the CYP3A4+/7R MAC-introduced mice to which 5% carbon tetrachloride had been administered in Test Example 11 and non-administered (Day 0) mice, an increase in the expression of DsRed on Days 1, 2 and 3 after the administration was analyzed by quantitative RT-PCR (FIG. 19).

[6] = system: CYP3A7-DsRed; assay: Liver injury test using CYP3A4+/7R MAC-introduced mice, observation under fluorescence microscope; type: in vivo, mouse; details: 8 weeks old mice; 5% carbon tetrachloride dissolved in DMSO; observed for 3 days
From the text: The CYP3A4+/7MAC-introduced mice produced in Example 5 strongly expressed DsRed for several weeks after the birth. […] In the CYP3A4+/7R MAC-introduced mice, EGFP functions as a marker showing introduction of MAC in the cells.

Structure (SMILES) | expression of EGFP (total area fluorescence intensity) [1] | fluorescence intensity of DsRed ([2]; HepaRG clone C3, drug in 1% DMSO, 48 hours, DMSO control group = 1) | cellular damage to HepaRG cells ([3]; HepaRG cells) | expression of CYP3A7 in liver [4] | expression of DsRed in the liver (quantitative RT-PCR) [5] | fluorescence intensity of DsRed in the liver [6] | fluorescence intensity of DsRed [2] | cellular damage to HepaRG cells [3]
CC(=O)[C@H]1[C@H](C#N)C[C@H]2[C@@H]3CC=C4C[C@@H](O)CC[C@]4(C)[C@H]3CC[C@@]21C [PCN, pregnenolone 16α-carbonitrile] | non-inducibility | increase | high cellular damage | transiently increased |  |  |  | 
ClC(Cl)(Cl)Cl [carbon tetrachloride] |  |  |  |  | increases | increase |  | 
Clc1ccccc1C(c1ccccc1)(c1ccccc1)n1ccnc1 [clotrimazole] | induced |  |  |  |  |  | increase | high cellular damage
